Legend:
[1] = Evaluation of solubility (visual appearance of stored solutions in aliphatic hydrocarbon solvents); format: physicochemical; settings: for solubility room temperature, 3 days: stored at room temperature for 3 days
Text: The symbols used to evaluate solubility in the Tables mean the following: • ◯: homogeneous transparent solution state • Δ: cloudy state • x: two-phase separation or crystallization

[2] = Evaluation of polymerization performance (ethylene/1-octene solution polymerization with CGC catalyst, compound as cocatalyst); settings: CGC 3 μmol, catalyst:cocatalyst=1:1, TIBA 3000 μmol, 40 ml solvent (MCH), 1-octene 1 mL, ethylene 8 atm, 50° C., 6 min
Description: A general polymerization method using the compound of the present invention (compound (1-2)) as a cocatalyst is shown below.
Into 100 mL autoclave in a glove box were added 1-octene, triisobutylaluminum (TIBA, 1.00 M hexane solution) and a solvent (methylcyclohexane (MCH)) to prepare a comonomer solution. A polymerization catalyst (dimethylsilylene(tert-butylamide)-(tetramethylcyclopentadienyl)-titanium (IV)-dichloride (CGC)), triisobutylaluminum (1.00 M hexane solution), and a solvent were added to prepare a catalyst solution at a predetermined concentration, and the solution was transferred to a Schlenk tube. Compound (1-2) (cocatalyst) was dissolved in a solvent, and a cocatalyst solution at a predetermined concentration was prepared and transferred to the Schlenk tube. The comonomer solution, the catalyst solution, and the cocatalyst solution were mixed, and prepared such that the total amount of the solvent and the total amount of triisobutylaluminum would be constant. The inside of the autoclave was purged with ethylene gas, the catalyst solution and the cocatalyst solution were successively added to the autoclave, and the ethylene gas pressure was immediately adjusted to a predetermined pressure, and the mixture was stirred at 50° C. for 6 min. […]

[3] = 0.6 wt % (≈3 mM) borate compound/n-hexane solution, visual observation
[4] = 50 wt % borate compound/methylcyclohexane solution, visual observation
[5] = 50 wt % borate compound/methylcyclohexane solution, stored at −15° C. for 3 days, visual observation

| Structure (SMILES) | solubility room temperature, 3 days [1, 3] | solubility room temperature, 3 days [1, 4] | solubility −15° C., 3 days [1, 5] | solubility at 3 days ([1]; organic solvent or mixture, 0.6 wt % (≈3 mM) borate compound/n-hexane solution, stored at −15° C. for 3 days, visual observation) [µM] | ethylene-octene copolymer obtained [2] [mg] | solubility −15° C., 3 days ([1]; 0.6 wt % (≈3 mM) borate compound/n-hexane solution, stored at −15° C. for 3 days, visual observation) | solubility in aliphatic hydrocarbon solvents at low temperatures, in words ([1]; compared to Comparative Examples 1 to 5, summary of Tables 1 and 2) |
| --- | --- | --- | --- | --- | --- | --- | --- |
| CCCCCCCCCCCCCCCCN(CCCCCCCCCCCCCCCC)c1ccccc1 [Comparative Example 1, N,N-Dihexadecylanilinium tetrakis(pentafluorophenyl) borate] | ∘ | ∘ | ∘ | < 3000 | – | – | – |
| CCCCCCCCCCCCCCCCCC[NH+](CCCCCCCCCCCCCCCCCC)c1ccc(CCCC)cc1.Fc1c(F)c(F)c([B-](c2c(F)c(F)c(F)c(F)c2F)(c2c(F)c(F)c(F)c(F)c2F)c2c(F)c(F)c(F)c(F)c2F)c(F)c1F [Example 2, N,N-Dioctadecyl-4-butylanilinium tetrakis(pentafluorophenyl) borate] | ∘ | ∘ | ∘ | – | 47.3 | ∘ | remarkably high solubility |
